{"source": "patent US6699896B1", "about": "“Oxazole-aryl-carboxylic acids useful in the treatment of insulin resistance and hyperglycemia” (Wyeth, priority 1998, dated 2004)", "key": {"[1]": {"system": "rat hepatic microsomal PTPases", "settings": "PTPase activity, compound at 50 μM, rat liver microsomes"}, "diabetic (ob/ob) mice": {"system": "diabetic (ob/ob) mice", "assay": "Blood glucose lowering in diabetic (ob/ob) mice", "format": "in vivo, mouse", "settings": "dose 100 mg/Kg, plasma glucose", "description": "The procedures used and results obtained are briefly described below.\nThe non-insulin dependent diabetic (NIDDM) syndrome can be typically characterizes by obesity, hyperglycemia, abnormal insulin secretion, hyperinsulinemia and insulin resistance.\nIn each test procedure, mice [Male or female ob/ob (C57 B1/6J) and their lean litermates (ob/+ or +/+, Jackson Laboratories) ages 2 to 5 months (10 to 65 g)] of a similar age were randomized according to body weight into 4 groups of 10 mice. The mice were housed 5 per cage and are maintained on normal rodent chow with water ad libitum. Mice received test compound daily by gavage (suspended in 0.5 ml of 0.5% methyl cellulose); dissolved in the drinking water; or admixed in the diet. The dose of compounds given ranges from 2.5 to 200 mg/kg body weight/day. The dose is calculated based on the fed weekly body weight and is expressed as active moiety. […]\nOn the morning of Day 4, 7 or 14 two drops of blood (approximately 50 ul) were collected into sodium fluoride containing tubes either from the tail vein or after decapitation. […] The plasma was isolated by centrifugation and the concentration of glucose is measured enzymatically on an Abbott V.P. Analyzer.\nFor each mouse, the percentage change in plasma glucose on Day 4, 7 or 14 is calculated relative to the mean plasma glucose of the vehicle treated mice. […]"}, "Human recombinant PTP1B": {"target": "T1, Human recombinant PTP1B (Homo sapiens, UniProt P18031)", "T1 construct": "made in house", "T1 sequence (P18031 1-435)": "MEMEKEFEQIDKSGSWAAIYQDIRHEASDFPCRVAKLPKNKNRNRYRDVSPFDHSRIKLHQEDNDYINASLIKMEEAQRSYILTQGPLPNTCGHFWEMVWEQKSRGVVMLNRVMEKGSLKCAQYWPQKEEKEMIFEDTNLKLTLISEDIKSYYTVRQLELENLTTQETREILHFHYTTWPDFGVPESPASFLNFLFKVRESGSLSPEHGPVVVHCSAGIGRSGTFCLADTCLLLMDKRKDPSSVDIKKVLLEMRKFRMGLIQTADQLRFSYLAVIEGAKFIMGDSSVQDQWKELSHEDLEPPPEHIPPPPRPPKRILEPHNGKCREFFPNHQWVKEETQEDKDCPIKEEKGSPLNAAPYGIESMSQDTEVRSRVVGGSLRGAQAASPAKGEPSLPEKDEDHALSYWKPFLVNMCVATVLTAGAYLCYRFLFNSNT", "format": "biochemical", "settings": "for percent of phosphatase control (change) at single concentration: compound at 2.5 uM; for IC50: recombinant PTP1B, malachite green phosphate detection"}}, "note": "Marks after values point to notes of the source that are not given here.", "data": [{"molecule": "Cc1oc(-c2ccc(C(F)(F)F)cc2)nc1-c1cccc(-c2ccc(O)cc2)c1", "note": "[Example 4, 3′-[5-Methyl-2-(4-trifluoromethyl-phenyl)-oxazol-4-yl]-biphenyl-4-ol]", "values": [{"measurement": "% Change from Control", "setting": "[1]", "result": "−28", "unit": "%"}]}, {"molecule": "CC1(COc2ccc(CC3SC(=O)NC3=O)cc2)CCCCC1", "note": "(stereo not drawn) [Ciglitazone, 5-(4-(1-methylcyclohexylmethoxy)benzyl)-2,4-dione, reference compound]", "values": [{"measurement": "% Change Glucose from Vehicle", "setting": "diabetic (ob/ob) mice", "result": "−43", "unit": "%"}]}, {"molecule": "COc1ccc(-c2cccc(-c3nc(-c4ccc(C(F)(F)F)cc4)oc3C)c2)cc1", "note": "[Example 2, 4-(4′-Methoxy-biphenyl-3-yl)-5-methyl-2-(4-trifluoromethyl-phenyl)-oxazole]", "values": [{"measurement": "percent of phosphatase control (change) at single concentration", "setting": "Human recombinant PTP1B", "result": "−47 (2.5 uM) %"}, {"measurement": "melting point", "result": "93 to 94", "unit": "°C"}]}, {"molecule": "Cc1oc(-c2ccc(C(F)(F)F)cc2)nc1-c1ccc(-c2cccc(Cn3oc(=O)[nH]c3=O)c2)cc1", "note": "[Example 14, 2-{4′-[5-Methyl-2-(4-trifluoromethyl-phenyl)-oxazol-4-yl]-biphenyl-3-ylmethyl}-[1,2,4]oxadiazolidine-3,5-dione]", "values": [{"measurement": "percent of phosphatase control (change) at single concentration", "setting": "Human recombinant PTP1B", "result": "−65 (2.5 uM) %"}, {"measurement": "melting point", "result": "216 to 218", "unit": "°C"}]}, {"molecule": "Ammonium molybdate tetrahydrate [reference compound]", "values": [{"measurement": "IC50", "setting": "Human recombinant PTP1B", "result": 8700, "unit": "nM"}]}, {"molecule": "Cc1oc(-c2ccc(C(F)(F)F)cc2)nc1-c1ccc(-c2ccc(O)cc2)cc1", "note": "[Example 3, 4′-[5-Methyl-2-(4-trifluoromethyl-phenyl)-oxazol-4-yl]-biphenyl-4-ol]", "values": [{"measurement": "percent of phosphatase control (change) at single concentration", "setting": "Human recombinant PTP1B", "result": "−56 (2.5 uM) %"}]}, {"molecule": "Cc1oc(-c2ccc(C(F)(F)F)cc2)nc1-c1ccc(-c2ccc(OCC(=O)O)cc2)cc1", "note": "[Example 5, {4′-[5-Methyl-2-(4-trifluoromethyl-phenyl)-oxazol-4-yl]-biphenyl-4-yloxy}-acetic Acid]", "values": [{"measurement": "% Change Glucose from Vehicle", "setting": "diabetic (ob/ob) mice", "result": "−40^a %"}, {"measurement": "IC50", "setting": "Human recombinant PTP1B", "result": 850, "unit": "nM"}]}, {"molecule": "COC(=O)C(Cc1ccccc1)Oc1c(Br)cc(-c2ccc(-c3nc(-c4ccc(C(F)(F)F)cc4)oc3C)cc2)cc1Br", "note": "(stereo not drawn) [Example 11, 2-{3,5-Dibromo-4′-[5-methyl-2-(4-trifluoromethyl-phenyl)-oxazol-4-yl]-biphenyl-4-yloxy}-3-phenyl-propionic Acid Methyl Ester]", "values": [{"measurement": "percent of phosphatase control (change) at single concentration", "setting": "Human recombinant PTP1B", "result": "−40 (2.5 uM) %"}, {"measurement": "melting point", "result": "70 to 72", "unit": "°C"}]}, {"molecule": "Cc1oc(-c2ccc(C(F)(F)F)cc2)nc1-c1ccc(-c2cc(Br)c(OCC(=O)O)c(Br)c2)cc1", "note": "[Example 10, {3,5-Dibromo-4′-[5-methyl-2-(4-trifluoromethyl-phenyl)-oxazol-4-yl]-biphenyl-4-yloxy}-acetic Acid]", "values": [{"measurement": "% Change from Control", "setting": "[1]", "result": "−35", "unit": "%"}, {"measurement": "IC50", "setting": "Human recombinant PTP1B", "result": 470, "unit": "nM"}]}, {"molecule": "Cc1oc(-c2ccc(C(F)(F)F)cc2)nc1-c1ccc2c(Br)c(OC(Cc3ccccc3)C(=O)O)ccc2c1", "note": "(stereo not drawn) [Example 17, 2-{1-Bromo-6-[5-methyl-2-(4-trifluoromethyl-phenyl)-oxazol-4-yl]-naphthalen-2-yloxy}-3-phenyl-propionic Acid]", "values": [{"measurement": "% Change from Control", "setting": "[1]", "result": "−54", "unit": "%"}, {"measurement": "IC50", "setting": "Human recombinant PTP1B", "result": 980, "unit": "nM"}]}, {"molecule": "Cc1oc(-c2ccc(C(F)(F)F)cc2)nc1-c1cccc(-c2ccc(OC(Cc3ccccc3)C(=O)O)cc2)c1", "note": "(stereo not drawn) [Example 8, 2-{3′-[5-Methyl-2-(4-trifluoromethyl-phenyl)-oxazol-4-yl]-biphenyl-4-yloxy}-3-phenyl-propionic Acid]", "values": [{"measurement": "% Change from Control", "setting": "[1]", "result": "−78", "unit": "%"}, {"measurement": "IC50", "setting": "Human recombinant PTP1B", "result": 1250, "unit": "nM"}]}, {"molecule": "Cc1oc(-c2ccc(C(F)(F)F)cc2)nc1-c1ccc(-c2cc(Br)c(O)c(Br)c2)cc1", "note": "[Example 9, 3,5-Dibromo-4′-[5-methyl-2-(4-trifluoromethyl-phenyl)-oxazol-4-yl]-biphenyl-4-ol]", "values": [{"measurement": "% Change from Control", "setting": "[1]", "result": "−20", "unit": "%"}, {"measurement": "IC50", "setting": "Human recombinant PTP1B", "result": 650, "unit": "nM"}]}, {"molecule": "Cc1oc(-c2ccc(C(F)(F)F)cc2)nc1-c1ccc2c(Br)c(OCC(=O)O)ccc2c1", "note": "[Example 16, {1-Bromo-6-[5-methyl-2-(4-trifluoromethyl-phenyl)-oxazol-4-yl]-naphthalen-2-yloxy}-acetic Acid]", "values": [{"measurement": "% Change from Control", "setting": "[1]", "result": "−20", "unit": "%"}, {"measurement": "IC50", "setting": "Human recombinant PTP1B", "result": 1200, "unit": "nM"}]}, {"molecule": "Cc1oc(-c2ccc(C(F)(F)F)cc2)nc1-c1ccc(-c2ccc(Cn3oc(=O)[nH]c3=O)cc2)cc1", "note": "[Example 13, 2-{4′-[5-Methyl-2-(4-trifluoromethyl-phenyl)-oxazol-4-yl]-biphenyl-4-ylmethyl}-[1,2,4]oxadiazolidine-3,5-dione]", "values": [{"measurement": "IC50", "setting": "Human recombinant PTP1B", "result": 1150, "unit": "nM"}, {"measurement": "melting point", "result": "196 to 198", "unit": "°C"}]}, {"molecule": "Cc1oc(-c2ccc(C(F)(F)F)cc2)nc1-c1ccc(-c2cc(Br)c(OC(Cc3ccccc3)C(=O)O)c(Br)c2)cc1", "note": "(stereo not drawn) [Example 12, 2-{3,5-Dibromo-4′-[5-methyl-2-(4-trifluoromethyl-phenyl)-oxazol-4-yl]-biphenyl-4-yloxy}-3-phenyl-propionic Acid]", "values": [{"measurement": "% Change from Control", "setting": "[1]", "result": "−68", "unit": "%"}, {"measurement": "IC50", "setting": "Human recombinant PTP1B", "result": 130, "unit": "nM"}]}, {"molecule": "Cc1oc(-c2ccc(C(F)(F)F)cc2)nc1-c1ccc(-c2ccc(OCc3nnn[nH]3)cc2)cc1", "note": "[Example 15, 5-{4′-[-Methyl-2-(4-trifluoromethyl-phenyl)-oxazol-4-yl]-biphenyl-4-yloxymethyl}-1H-tetrazole]", "values": [{"measurement": "% Change from Control", "setting": "[1]", "result": "−47", "unit": "%"}, {"measurement": "IC50", "setting": "Human recombinant PTP1B", "result": 930, "unit": "nM"}, {"measurement": "melting point", "result": "226 to 227", "unit": "°C"}]}, {"molecule": "Cc1oc(-c2ccc(C(F)(F)F)cc2)nc1-c1ccc(-c2ccc(OC(Cc3ccccc3)C(=O)O)cc2)cc1", "note": "(stereo not drawn) [Example 7, 2-{4′-[5-Methyl-2-(4-trifluoromethyl-phenyl)-oxazol-4-yl]-biphenyl-4-yloxy}-3-phenyl-propionic Acid]", "values": [{"measurement": "% Change from Control", "setting": "[1]", "result": "−74", "unit": "%"}, {"measurement": "IC50", "setting": "Human recombinant PTP1B", "result": 1290, "unit": "nM"}]}, {"molecule": "COc1ccc(-c2ccc(-c3nc(-c4ccc(C(F)(F)F)cc4)oc3C)cc2)cc1", "note": "[Example 1, 4-(4′-Methoxy-biphenyl-4-yl)-5-methyl-2-(4-trifluoromethyl-phenyl)-oxazole]", "values": [{"measurement": "IC50", "setting": "Human recombinant PTP1B", "result": 1660, "unit": "nM"}, {"measurement": "melting point", "result": "167 to 168", "unit": "°C"}]}]}
